Legend:
[1] = tested on: mouse and human macrophages; settings: cited from earlier work
atherosclerotic plaque = settings: mice; cited from earlier work
HEK293T cells = assay: ER stress-induced phosphorylation in control- or IRE1-siRNA transfected HEK293T cells (western blot); format: cell-based, human; settings: PA 500 μM or TG 600 nM, 4 hours, control cells
Protocol: FIGS. 1A-1K depict FMRP is a new inositol-requiring enzyme-1 (IRE1) kinase substrate. A representative blot is shown from at least n=3 independent experiments. Data are mean±SEM. Unpaired 1-test with Welch's correction or paired 1-test. * P≤0.05, ** P≤0.01, *** P≤0.001. • 1A. STING analysis of published IRE1 interactome proteins in relation to FMRP (Acosta-Alvear et al., 2018). • 1B. HEK293T cells were co-transfected with IRE1 and FMRP plasmids and stimulated with TG (600 nM) or TM (1 mg/ml) for 2 hours. Protein lysates were immunoprecipitated (IP) with anti-IRE1 or IgG (control) antibodies and analyzed by Western blotting using specific antibodies for FMRP and IRE1 (n=3). • 1C. RAW 264.7 mouse macrophages were treated with either oxLDL (50 μg/ml) or TG (300 nM) for 6 hours. Protein lysates were treated with λ Phosphatase (PPase) for 30 minutes and analyzed by western blotting using specific antibodies for pFMRP, FMRP, pIRE1, IRE1 and β-Actin. pFMRP/FMRP fold induction is depicted above the blots (n=6). • 1D. […] Protein lysates were analyzed by western blotting using specific antibodies for pFMRP, FMRP, pIRE1, IRE1 and β-Actin. pFMRP/FMRP-fold induction is depicted above the blots (n=5). • 1E. […] Protein lysates were analyzed by western blotting using specific antibodies for pFMRP, FMRP, pIRE1, IRE1 and β-Actin. pFMRP/FMRP fold induction is depicted above the blots (n=4). • 1F. […]

[2] = tested on: RAW 264.7 mouse macrophages; assay: ER stressor treatment of RAW 264.7 macrophages (western blot, qRT-PCR); format: cell-based; settings: oxLDL 50 μg/ml or TG 300 nM, 6 hours
Protocol: FIGS. 1A-1K depict FMRP is a new inositol-requiring enzyme-1 (IRE1) kinase substrate. A representative blot is shown from at least n=3 independent experiments. Data are mean±SEM. Unpaired 1-test with Welch's correction or paired 1-test. * P≤0.05, ** P≤0.01, *** P≤0.001. • 1A. STING analysis of published IRE1 interactome proteins in relation to FMRP (Acosta-Alvear et al., 2018). • 1B. HEK293T cells were co-transfected with IRE1 and FMRP plasmids and stimulated with TG (600 nM) or TM (1 mg/ml) for 2 hours. Protein lysates were immunoprecipitated (IP) with anti-IRE1 or IgG (control) antibodies and analyzed by Western blotting using specific antibodies for FMRP and IRE1 (n=3). • 1C. RAW 264.7 mouse macrophages were treated with either oxLDL (50 μg/ml) or TG (300 nM) for 6 hours. Protein lysates were treated with λ Phosphatase (PPase) for 30 minutes and analyzed by western blotting using specific antibodies for pFMRP, FMRP, pIRE1, IRE1 and β-Actin. pFMRP/FMRP fold induction is depicted above the blots (n=6). • 1D. Apoe^−/− mice were fed with chow diet (CD) or western diet (WD) for 16 weeks followed by peritoneal macrophage (PM) isolation. Protein lysates were analyzed by western blotting using specific antibodies for pFMRP, FMRP, pIRE1, IRE1 and β-Actin. pFMRP/FMRP-fold induction is depicted above the blots (n=5). • 1E. Control- or IRE1-siRNA transfected HEK293T cells were stimulated by either PA (500 μM) or TG (600 nM) for 4 hours. Protein lysates were analyzed by western blotting using specific antibodies for pFMRP, FMRP, pIRE1, IRE1 and β-Actin. pFMRP/FMRP fold induction is depicted above the blots (n=4). • 1F. Protein lysates of thioglycolate-elicited PM from IRE1α^−/− and IRE1α^−/− mice (after 16 weeks on WD) were analyzed by western blotting using specific antibodies for pFMRP, FMRP, pIRE1, IRE1 and β-Actin. pFMRP/FMRP fold induction is depicted above the blots (n=4). • 1G. […] Protein lysates were analyzed by western blotting using specific antibodies for pFMRP, FMRP, pIRE1, IRE1 and β-Actin. pFMRP/FMRP fold induction is depicted above the blots (n=4). • 1H. […] Protein lysates of thioglycolate-elicited PM were analyzed by western blotting using antibodies for pFMRP, FMRP, pIRE1, IRE1 and β-Actin. pFMRP/FMRP fold induction is depicted above the blots (n=4). • 1I. […] The IP protein were analyzed by western blotting using specific antibodies for thiophosphate esters (ThioP), IRE1 and FMRP (n=3). • 1J. Purified FMRP and IRE1 kinase (activated) proteins were subjected to kinase assay and analyzed by western blotting using specific antibodies for ThioP, IRE1 and FMRP (n=3) and with LC-MS/MS. […] Protein lysates were analyzed by western blotting using specific antibodies for FMRP, pFMRP, pIRE1 and β-Actin. pFMRP/FMRP fold induction is depicted above the blots (n=3). […]

Row | Compound | lipid-induced inflammasome activation [1] | secretion of mature interleukin-1β (m-IL-1β) and m-IL-18 [1] | atherosclerotic plaque size (atherosclerotic plaque) | hyperlipidemia-induced m-IL-1β and m-IL-18 production (atherosclerotic plaque) | phosphorylation of FMRP (HEK293T cells) | phosphorylation of IRE1 (HEK293T cells) | FMRP phosphorylation (S500) [2] | IRE1 autophosphorylation (S724) [2] | levels of FMRP protein [2] | levels of Fmr1 mRNA [2]
1 | Cc1cc(=O)oc2c(C=O)c(O)ccc12 [4μ8C] | prevented | prevented | reducing | reducing |  |  |  |  |  | 
2 | O=S(=O)(N=Cc1c(O)ccc2ccccc12)c1cccs1 [STF-083010] | prevented | prevented | reducing | reducing |  |  |  |  |  | 
3 | C/C=C(/C)C(=O)O[C@H]1C(C)=C2[C@H]([C@@H]1OC(=O)CCCCCCC)[C@@](C)(OC(C)=O)C[C@H](OC(=O)CCC)[C@@]1(O)[C@H]2OC(=O)[C@@]1(C)O [TG, thapsigargin] |  |  |  |  | induced | induced | significantly induced | significantly induced | did not affect | did not affect

From patent publication US20250134889A1, “TARGETING IRE1 KINASE AND FMRP FOR PROPHYLAXIS, MANAGEMENT AND TREATMENT OF ATHEROSCLEROSIS” (CEDARS-SINAI MEDICAL CENTER, priority 2022, published 2025)
